# From US20210403415A1, “COMPOUNDS AND METHODS TO ATTENUATE TUMOR PROGRESSION AND METASTASIS” (THE TRUSTEES OF INDIANA UNIVERSITY, priority 2018, published 2021)
# “Also recorded” adds a separate entry of the source.
# How the values were obtained:
# [1] = test system: TEAD4 transcriptional activity; experiment: TEAD4 luciferase reporter assay (CTGF promoter) in HEK-293 cells; format: cell-based
# Protocol: HEK-293 cells plated at 2.4×10^4 cells/well in a 96-well microplate were transfected after 24 hours with the a pGL3.1 reporter containing the CTGF promoter and a plasmid encoding TK-Renilla luciferase in combination with control vectors or vectors that express Yap1 and TEAD4. […] Luciferase activity was measured according to the Dual-Glo luciferase assay (Promega) instructions using a Biotek Synergy Neo2 plate reader. Relative luciferase activity represents the ratio of firefly/renilla luminescence values.
# [2] = biological target: Cav2.2 α·β protein-protein interaction (Homo sapiens, UniProt P54284); experiment: Fluorescence polarization, Cavβ3 with labeled α-subunit peptide; format: binding; details: 24 h at 4° C.
# Cav2.2 α·β protein-protein interaction, sequence (P54284 whole entry): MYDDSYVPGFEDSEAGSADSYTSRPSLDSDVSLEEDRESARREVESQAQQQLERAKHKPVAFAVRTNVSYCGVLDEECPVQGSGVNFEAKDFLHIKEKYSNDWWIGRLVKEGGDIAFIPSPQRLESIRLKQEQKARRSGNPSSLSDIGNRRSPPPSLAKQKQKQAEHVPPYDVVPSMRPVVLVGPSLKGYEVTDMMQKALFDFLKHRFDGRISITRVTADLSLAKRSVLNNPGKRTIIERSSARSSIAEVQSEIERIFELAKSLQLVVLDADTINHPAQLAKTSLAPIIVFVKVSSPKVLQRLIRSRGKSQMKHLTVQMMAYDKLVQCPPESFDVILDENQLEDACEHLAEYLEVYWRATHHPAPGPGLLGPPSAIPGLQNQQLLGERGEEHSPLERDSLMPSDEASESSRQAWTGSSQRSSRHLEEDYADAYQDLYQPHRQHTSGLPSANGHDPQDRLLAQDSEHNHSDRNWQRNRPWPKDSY
# Description: (§1) The selectivity of the compounds was explored with two unrelated protein-protein interactions between (i) the urokinase receptor (uPAR) and its ligand urokinase (uPA); and (ii) the a subunit of the voltage-gated calcium channel Cav2.2 with its β subunit Cavβ3. […] Both proteins have cysteine residues capable of forming covalent adducts.
# (§2) FIG. 4D illustrates BLI measurements of the binding of TEAD4 to captured Yap when biotin-labeled GST-Yap1 was captured onto streptavidin-conjugated biolayer interferometry sensors which were dipped into varying concentrations of TEAD4. (mean±s.d.; n=3). […] FIG. 4F illustrates measured fluorescence polarization when increasing concentration of HIS-TEAD2 was mixed with 16 nM FAM-Yap60-99 peptide (mean±s.d.; n=3). FIG. 4G illustrates measured fluorescence polarization when HIS-TEAD2 was incubated with increasing concentration of compounds for 24 h at 4° C. followed by addition of FAM-Yap60-99 (mean±s.d.; n=3). FIG. 4H illustrates measured fluorescence polarization when urokinase receptor (uPAR) was incubated with varying concentrations of compounds for 24 h at 4° C. followed by addition of a urokinase-derived fluorescently-labeled peptide AE147 (mean±s.d.; n=3). […]
# TEAD4.Yap1 interaction = TEAD4.Yap1 interaction (Homo sapiens, UniProt Q15561); experiment: Co-immunoprecipitation of Myc-tagged TEAD4 with Flag-tagged Yap1 in HEK293 cells; format: cell-based; design: expressed in transfected cells; host or cells: HEK293; details: 5 μM, 48 hours
# TEAD4.Yap1 interaction, sequence (Q15561 whole entry): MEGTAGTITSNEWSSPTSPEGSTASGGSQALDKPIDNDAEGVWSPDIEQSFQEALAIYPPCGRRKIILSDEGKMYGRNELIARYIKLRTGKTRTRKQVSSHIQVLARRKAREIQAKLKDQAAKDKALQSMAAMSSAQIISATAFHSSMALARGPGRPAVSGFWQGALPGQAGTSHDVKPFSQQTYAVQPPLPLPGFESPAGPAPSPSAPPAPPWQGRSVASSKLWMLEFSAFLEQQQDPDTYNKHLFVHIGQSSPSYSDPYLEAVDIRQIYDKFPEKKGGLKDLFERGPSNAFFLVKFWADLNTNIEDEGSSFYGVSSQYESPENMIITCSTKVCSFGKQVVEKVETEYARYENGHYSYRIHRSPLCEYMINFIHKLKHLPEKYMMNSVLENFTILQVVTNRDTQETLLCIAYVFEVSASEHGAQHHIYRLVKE
# Protocol: HEK293 cells transfected with Flag-YAP1 alone or in combination with myc-TEAD4 were incubated with DMSO or the indicated amount of compounds for 48 hours. Cells were harvested in lysis buffer (50 mM Tris-HCl, pH 7.3, 150 mM NaCl, 0.5 mM EDTA, 1% Triton X-100, PhosSTOP phosphatase inhibitor cocktail, and complete EDTA-free protease inhibitors cocktail). Extracts were immunoprecipitated with magnetic beads coupled to the M2 (anti-Flag) antibody (Sigma-Aldrich) for 4 h at 4° C. Dynabeads were then washed and bound proteins were denatured and eluted according to the manufacturer's instructions. Relative levels of myc-TEAD4 from each complex was then measured by immunoblot analysis with the anti-c-Myc antibody (1:5,000, Sigma-Aldrich).
# [3] = biological target: uPAR.uPA protein-protein interaction (Homo sapiens, UniProt Q03405); experiment: Fluorescence polarization, urokinase receptor with peptide AE147; format: binding; details: 24 h at 4° C.
# uPAR.uPA protein-protein interaction, sequence (Q03405 23-305 limits assumed): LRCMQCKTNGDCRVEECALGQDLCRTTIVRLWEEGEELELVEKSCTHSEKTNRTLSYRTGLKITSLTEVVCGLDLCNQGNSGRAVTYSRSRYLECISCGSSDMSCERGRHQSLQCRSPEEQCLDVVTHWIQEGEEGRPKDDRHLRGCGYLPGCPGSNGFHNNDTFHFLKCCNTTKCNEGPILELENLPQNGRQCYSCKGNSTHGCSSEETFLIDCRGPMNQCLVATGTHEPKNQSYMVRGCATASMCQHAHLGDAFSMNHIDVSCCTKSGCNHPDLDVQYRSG
# Description: as §1, §2
# [4] = test system: TEAD4 transcriptional activity; experiment: TEAD4 luciferase reporter in GBM43 cells; format: cell-based, human
# Protocol: FIG. 8A illustrates relative percent viability of spheroids of patient-derived GBM43 glioblastoma cell lines were grown and treated with compound 1, compound 2, and compound 5; mean±s.d.; n=3 biological replicates. FIG. 8B illustrates the measured activity of the TEAD4 luciferase reporter in GBM43 cells treated with either vehicle or compound 2. CNYT corresponds to no transfection; mean±s.d.; n=3 biological replicates. FIG. 8C illustrates qRT-PCR analysis of CTGF levels following treatment of HEK-293T cells with compounds; mean±s.d.; n=3 biological replicates. FIG. 8D illustrates relative percent viability of spheroids of patient-derived GBM43 glioblastoma cell lines were grown and treated with temozolomide; mean±s.d. of biological replicates (n=3). P values were calculated using two-tailed t-tests. *P<0.05, **P<0.005, ***P<0.0005.
# [5] = test system: TEAD4 Cys367Ala mutant transcriptional activity; experiment: TEAD4 luciferase reporter assay with transfected Cys367Ala mutant in HEK-293 cells; format: cell-based
# Protocol: HEK-293 cells plated at 2.4×10^4 cells/well in a 96-well microplate were transfected after 24 hours with the a pGL3.1 reporter containing the CTGF promoter and a plasmid encoding TK-Renilla luciferase in combination with control vectors or vectors that express Yap1 and TEAD4. After 48 h cells, were treated with 0.5, 1.0, 5.0 or 10 μM of compound 2 for another 48 h. Luciferase activity was measured according to the Dual-Glo luciferase assay (Promega) instructions using a Biotek Synergy Neo2 plate reader. Relative luciferase activity represents the ratio of firefly/renilla luminescence values.
# The effect of compound 2 on the intracellular transcriptional activity of TEAD4 was compared to its effects on the interaction of TEAD4 with Yap (FIG. 7A-7F). […] To further establish the selectivity of the small molecule, the TEAD4 transcriptional activity luciferase reporter assays were repeated using instead transfected Cys367Ala mutant. […] To establish that compound 2 forms a covalent adduct with TEAD4 in cells, a biotin-conjugated variant termed compound 9 was synthesized. […] (A) The activity of the TEAD4 luciferase reporter was measured in HEK-293 cells at 24 h treated with either vehicle or compound 2 (TED-347); mean±s.d.; n=3 replicates. (B) The activity of the TEAD4 luciferase reporter was measured in HEK-293 cells treated with either vehicle or compound 2 (TED-347); mean±s.d.; n=2 replicates. […]
smiles,measurement,setting,value
"O=C(CCl)c1ccccc1Nc1cccc(C(F)(F)F)c1 [Compound 2, 2-chloro-1-(2-((3-(trifluoromethyl)phenyl)amino)phenyl)ethanone]",reduction in reporter activity,"[1]; 5 μM, 48 h",over 70%
same,reporter activity,"[1]; 10 μM, 48 h",complete loss of reporter activity
same,TEAD transcriptional activity,[1]; 24 h,Less activity is observed at 24 h; also recorded: inhibits TEAD transcriptional activity in a concentration-dependent manner
same,inhibition of Cav2.2 α·β interaction,[2],no inhibition
same,co-immunoprecipitation of Myc-tagged TEAD4 with Flag-Tagged Yap1,TEAD4.Yap1 interaction,significant loss of co-immunoprecipitation
same,inhibition of uPAR.uPA interaction,[3],no inhibition
same,TEAD4 transcriptional activity in GBM43 cells,[4],inhibited TEAD4 transcriptional activity
same,inhibition of mutant TEAD4 transcriptional activity,[5],did not result in the inhibition
